Test results published in article PMC11431439, “Study on the Inhibitory Effect of Bioactive Peptides Derived from Yak Milk Cheese on Cholesterol Esterase” (Foods, 2024).
Entries after “also recorded” stand apart in the source; their conditions may differ. Where no end group is shown, it is not given here.

Assays:
[1] = target: T1, Porcine cholesterol esterase (Sus scrofa, UniProt A0A286ZKB1); assay: CE inhibitory activity assay (spectrophotometry); assay type: biochemical; details: for comparative inhibitory activity on CE (in words): authors' ranking, for KQ7 partly integrating molecular dynamics; for concentration dependence of CE inhibition rate: 0.2–1.0 mg/mL; for CE inhibition rate vs control group: all concentrations, p < 0.05
T1 sequence (A0A286ZKB1 1-682): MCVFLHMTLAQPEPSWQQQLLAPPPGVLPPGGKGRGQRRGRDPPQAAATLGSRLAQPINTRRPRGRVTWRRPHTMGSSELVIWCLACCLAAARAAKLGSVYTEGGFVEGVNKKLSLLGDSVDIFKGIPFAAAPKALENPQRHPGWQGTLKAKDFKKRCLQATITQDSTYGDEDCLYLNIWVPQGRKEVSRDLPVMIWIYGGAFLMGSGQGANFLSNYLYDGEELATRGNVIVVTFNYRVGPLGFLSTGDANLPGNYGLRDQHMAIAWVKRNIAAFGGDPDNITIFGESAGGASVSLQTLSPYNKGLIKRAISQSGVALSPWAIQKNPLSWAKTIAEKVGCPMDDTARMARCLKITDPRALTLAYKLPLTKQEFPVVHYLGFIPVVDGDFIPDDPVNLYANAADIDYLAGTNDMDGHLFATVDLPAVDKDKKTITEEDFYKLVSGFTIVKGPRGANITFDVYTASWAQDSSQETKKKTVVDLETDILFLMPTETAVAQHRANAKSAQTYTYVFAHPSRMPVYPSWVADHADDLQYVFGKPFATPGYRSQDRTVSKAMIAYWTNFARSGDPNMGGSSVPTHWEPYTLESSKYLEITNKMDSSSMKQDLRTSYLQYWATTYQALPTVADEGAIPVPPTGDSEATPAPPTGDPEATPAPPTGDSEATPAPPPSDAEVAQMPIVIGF
Procedure: (§1) Porcine cholesterol esterase and the ELISA kit were provided by Jiangsu JINGMEI Biotechnology Co., Ltd. (Yancheng, China).
(§2) In the formula, ODs: is the absorbance value of the sample group; ODsb: is the absorbance value of the sample blank group; ODc: is the absorbance value of the control group; and ODb: is the absorbance value of the blank group.
(§3) Each experimental sample was tested in triplicate, and the data were processed using IBM SPSS Statistics 26 software. Figures were generated using Origin 2018 and GraphPad Prism 8.0.2 software.

[2] = target: T1, Porcine cholesterol esterase; assay: CE inhibitory activity after simulated gastrointestinal digestion (pepsin, trypsin); assay type: biochemical; details: for CE inhibition after digestion (in words): after simulated gastrointestinal digestion; for change of CE inhibition on digestion (in words): simulated gastrointestinal digestion, KQ7, QP13, VN10 at 60 min, RK7 within 120 min
Excerpt: as §1, §2
We dissolved the synthesized peptide aqueous solution in pepsin (enzyme: substrate 1:50 w/w) and adjusted the pH to 2 using 1 mol/L HCl. Then, we hydrolyzed this at 37 °C for 90 min, then adjusted the pH to 7.5 with 1 mol/L NaOH solution and added trypsin (enzyme: substrate 1:50 w/w). Next, we hydrolyzed this at 37 °C for 180 min in a constant temperature water bath. Subsequently, we inactivated this by boiling it in a 95 °C water bath for 10 min. Finally, we took samples every 30 min and stored each sample at −20 °C for later analysis.
The determination of CE activity refers to Section 2.3.5.
as §3

[3] = peptide isolated from soybean glycinin; ref [26]; cited from earlier work
Excerpt: These carbon–hydrogen bonds may have stabilized the QP13–CE complex to some extent, complementing the hydrogen bonds. It formed π–Alkyl bonds with Ile426, Phe119, Ala117, Leu69, and Leu124 through hydrophobic interactions. QP13 also interacted with Asp434, Lys445, Asn118, Met424, Ile426, Tyr75, Thr68, Tyr427, Tyr123, Leu69, Gln440, Asn112, Phe119, and Arg63 through van der Waals f ...

Compound | comparative inhibitory activity on CE (in words) [1] | IC50 ([1]; from inhibition curve, spectrophotometry, triplicate) | CE inhibition after digestion (in words) [2] | change of CE inhibition on digestion (in words) [2] | concentration dependence of CE inhibition rate [1] | CE inhibition rate vs control group [1] | cholesterol effect [3]
CC(C)c1c(C(=O)Nc2ccccc2)c(-c2ccccc2)c(-c2ccc(F)cc2)n1CC[C@@H](O)C[C@@H](O)CC(=O)O [Atorvastatin, reference compound] | strongest inhibitory effect on CE | 854 µM |  |  |  |  | 
KVLPVPQ [KQ7, Lys-Val-Leu-Pro-Val-Pro-Gln] | highest inhibitory activity on CE; also recorded: higher inhibitory activity against CE compared to RK7; also recorded: highest inhibitory activity against CE |  | effective in inhibiting CE after simulated gastrointestinal digestion | significant increase in the inhibitory activity; also recorded: significant increase in CE inhibition activity at 60 min during digestion (p < 0.05); also recorded: significantly enhanced after simulated gastrointestinal digestion | increased with the increase of peptide mass concentration | significantly higher than those of the control group at all concentrations (p < 0.05) | 
Leu–Pro–Tyr–Pro |  |  |  |  |  |  | demonstrated low cholesterol effects
QEPVLGPVRGPFP [QP13] |  |  | effective in inhibiting CE after simulated gastrointestinal digestion | significant increases in inhibition activity (p < 0.05) | increased with the increase of peptide mass concentration | significantly higher than those of the control group at all concentrations (p < 0.05) | 
RPKHPIK [RK7, Arg-Pro-Lys-His-Pro-Ile-Lys] |  |  | effective in inhibiting CE after simulated gastrointestinal digestion | significant increase in the inhibitory activity; also recorded: significant changes observed (p < 0.05); also recorded: significantly enhanced after simulated gastrointestinal digestion | increased with the increase of peptide mass concentration | significantly higher than those of the control group at all concentrations (p < 0.05) | 
VYPFPGPIPN [VN10] |  |  | effective in inhibiting CE after simulated gastrointestinal digestion | significant increases in inhibition activity (p < 0.05) | increased with the increase of peptide mass concentration | significantly higher than those of the control group at all concentrations (p < 0.05) | 
